These results are taken from article PMC8350020, “Stepwise binding of inhibitors to human cytochrome P450 17A1 and rapid kinetics of inhibition of androgen biosynthesis” (The Journal of Biological Chemistry, 2021).

By IC50 is commonly meant the concentration that gives 50% inhibition. The Ki is a dissociation constant, usually derived from enzyme kinetics or from competition with a known ligand. The term Kd denotes the concentration at which binding is half-saturated. What is called koff is the first-order rate constant of dissociation.

Series [1] relates to human P450 17A1. The settings on record: read-out: IC50, progesterone 17α-hydroxylation, cited from earlier work.
Series [2] relates to human P450 17A1. The settings on record: cited from earlier work; for IC50: read-out: IC50, 17α-OH pregnenolone to DHEA (lyase).
The target in series [3] is T1, human P450 17A1 (Homo sapiens, UniProt P05093).
T1 sequence (P05093 24-508 limits assumed): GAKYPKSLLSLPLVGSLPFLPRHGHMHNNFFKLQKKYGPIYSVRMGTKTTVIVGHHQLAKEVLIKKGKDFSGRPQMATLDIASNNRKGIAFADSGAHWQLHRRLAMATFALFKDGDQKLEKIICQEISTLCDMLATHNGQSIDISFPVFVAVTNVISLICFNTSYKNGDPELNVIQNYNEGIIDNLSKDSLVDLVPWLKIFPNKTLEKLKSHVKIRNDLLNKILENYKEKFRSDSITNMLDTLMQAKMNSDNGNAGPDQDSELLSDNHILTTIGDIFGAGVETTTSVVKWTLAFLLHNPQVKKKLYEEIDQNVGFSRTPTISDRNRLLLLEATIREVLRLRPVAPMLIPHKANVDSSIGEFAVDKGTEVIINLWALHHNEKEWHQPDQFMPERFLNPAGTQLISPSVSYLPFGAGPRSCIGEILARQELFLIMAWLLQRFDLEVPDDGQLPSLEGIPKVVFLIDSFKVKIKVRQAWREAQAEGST
The series is described as follows: IC50 determination, progesterone 17α-hydroxylation (17α-OH progesterone formation), reconstituted P450 17A1/POR/b5. It counts as biochemical. The settings on record: for IC50: IC50 (95% CI limits), progesterone 17α-hydroxylation, steady-state, 0.02 μM P450 17A1, 5 μM progesterone, 37 °C; for Ki: IC50 = Ki [1 + (S/Km)] for competitive inhibition, Km from Ref. 37, read-out: Predicted Ki, progesterone 17α-hydroxylation. On the procedure:
(§1) A 0.5 ml reaction was prepared in most cases by the reconstitution of P450 17A1 (0.02 μM), POR (0.5 μM), and b5 (0.5 μM) with freshly sonicated L-α-dilauroyl-sn-glycero-3-phosphocholine (30 μM). The mixture incubated on ice for 10 min, followed by the addition of potassium phosphate buffer (to a final concentration of 50 mM), substrate (5 μM progesterone or 1.5 μM 17α-OH pregnenolone ([37])), and water. Stock progesterone was prepared in CH3OH and was diluted to a final concentration of 5 μM (0.5% CH3OH, v/v). […] Reactions (in duplicate) were preincubated for 5 min at 37 °C with shaking before being initiated with an NADPH-generating system composed of 0.5 mM NADP^+, two units of yeast glucose 6-phosphate dehydrogenase ml^−1, and 10 mM glucose 6-phosphate ([56]). The inhibitor abiraterone was added immediately prior to the 5-min preincubation stage because of the rapid onset of inhibition. Reactions (5 min) were quenched by immersion in an ice bath, with the addition of CH2Cl2 (2.0 ml), and were centrifuged (10^3g, 10 min) to separate layers. The organic (bottom) phases were removed (1.6 ml) and transferred into clean vials, and the solvent was removed under a stream of nitrogen. Reactions were resuspended in a CH3CN/sodium acetate mixture (25 mM, pH 3.7) (1:1, v/v) and were transferred to vials for UPLC analysis. […] Substrate and product were detected using a Waters Acuity photodiode array system at 240 nm. Data were processed using the MassLynx software, and percent conversion of substrate to product was calculated. The data were normalized to the uninhibited reaction, which was set at 100% activity.

Series [4] has as its target T1, human P450 17A1. The experiment in a line: IC50 determination, 17α-OH pregnenolone lyase activity (DHEA formation), reconstituted P450 17A1/POR/b5. The format is biochemical. The settings on record: for Ki: IC50 = Ki [1 + (S/Km)] for competitive inhibition, Km from Ref. 37, read-out: Predicted Ki, 17α-OH pregnenolone lyase; for Ratio (17-hydroxylation/lyase) of IC50: This work. On the procedure:
In the case of catalytic assays, the products of each reaction were redissolved in a solution of CF3CO2H (7 mM, prepared as a 0.1% v/v solution in C2H5OH) and dansyl hydrazine (10 mM, prepared in CH3OH) in amber glass vials (sealed and capped) and were allowed to react overnight (16 h) in the dark at room temperature (23 °C). The reaction was quenched with acetone (50 mM) followed by incubation at room temperature for 30 min. NaOH was added to 100 mM, and the products of the reactions were extracted into CH2Cl2 (1.0 ml), of which 0.8 ml of the organic (lower) layers was transferred to fresh amber vials and dried under a stream of nitrogen. The residues were redissolved in a mixture of a 0.1% HCO2H solution (aqueous) and CH3CN (0.1 ml; 1:1 dilution, v/v) and transferred to ultra performance LC (UPLC) vials for analysis. […] Data were processed using MassLynx software (Waters) (Fig. S5).
as §1
Experimental conditions for the lyase reaction were identical to the hydroxylation reaction with the following exceptions: 17α-OH pregnenolone (1.5 μM) was used as the substrate, and following extraction, the product of the reaction was derivatized with dansyl hydrazine as described previously.

Series [5] addresses T1, human P450 17A1. The series is described as follows: Rates of onset of inhibition, pre-steady-state rapid chemical quench. The format is biochemical.
Description: In the control experiment, ES is not inhibited (no I present). […] Both progesterone 17α-hydroxylation (Fig. 10) and 17α-OH pregnenolone lyase activity (Fig. 11) were measured without and with all five inhibitors.
Reactions were performed using a KinTek RQF-3 rapid quench apparatus (KinTek) with the reaction loop set at position 7 and the temperature at 37 °C. The RQF-3 is a rapid mixing device that initiates a reaction by forcing equal volumes of two mixing syringes into a reaction loop. After pausing for the indicated incubation time, the reaction is then quenched and expelled from the apparatus. The reaction mixture (containing enzyme and substrate [in CH3OH, 1% (v/v)]) was initiated with an equal volume (19 μl) of NADPH solution (2 mM), effectively halving the initial concentration of all reaction components. When appropriate, inhibitor (in CH3OH) was added to the NADPH solution (in CH3OH), taking care to keep the total CH3OH composition of the final reaction to 1% (v/v). The substrates progesterone (5 μM) and 17α-OH pregnenolone (1.5 μM) were allowed to react for different lengths of time (0.1–5 and 2–60 s, respectively) prior to quenching with 160 μl of 1 M HCl. Five replicates of each time point were collected into vials to increase the detection sensitivity of the respective product at the shorter time points.
Series [6] has as its target T2, human P450 17A1 (Homo sapiens, UniProt P05093).
T2 sequence (P05093 1-508): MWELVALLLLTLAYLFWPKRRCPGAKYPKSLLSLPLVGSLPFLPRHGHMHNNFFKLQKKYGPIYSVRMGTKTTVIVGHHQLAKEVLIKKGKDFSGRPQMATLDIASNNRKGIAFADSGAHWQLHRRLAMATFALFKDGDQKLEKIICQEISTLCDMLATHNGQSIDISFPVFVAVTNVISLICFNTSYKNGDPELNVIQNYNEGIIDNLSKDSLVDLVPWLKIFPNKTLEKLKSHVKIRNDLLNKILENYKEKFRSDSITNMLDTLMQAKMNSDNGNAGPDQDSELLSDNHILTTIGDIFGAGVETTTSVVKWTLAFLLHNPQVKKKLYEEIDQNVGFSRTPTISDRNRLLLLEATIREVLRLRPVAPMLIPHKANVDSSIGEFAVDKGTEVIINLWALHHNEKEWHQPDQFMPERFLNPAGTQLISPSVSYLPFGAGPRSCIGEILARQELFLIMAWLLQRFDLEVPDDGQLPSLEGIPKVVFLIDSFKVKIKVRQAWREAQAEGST
The experiment in a line: Inhibition as a function of preincubation time with abiraterone, CYP17A1R Bactosomes. It counts as biochemical. The note with it: 50 nM abiraterone, 10 nM P450 17A1 Bactosomes.
Description: These experiments utilized bacterial membranes (CYP17A1R Bactosomes) as the source of P450 and POR. Experiments were done with 10 nM P450 17A1 in reaction volumes of 0.5 ml, with 100 nM b5 added. Abiraterone was added to 50 nM, and then, the reactions were initiated by the addition of an NADPH-generating system supplemented with either 20 μM progesterone (A) or 17α-OH pregnenolone (B) at the indicated times and proceeded for 5 min (at 37 and 23 °C, respectively).
Steady-state kinetic inhibition assays performed with Cypex CYP17A1R Bactosomes followed largely the same procedure with the following exception: the enzymatic system was prepared by preincubating (23 °C) P450 17A1 (CYP17A1R Bactosomes; 10 nM P450), b5 (100 nM), and potassium phosphate buffer (50 mM, pH 7.4) with abiraterone (50 nM) for varying lengths of time (0.25–30 min). Reactions (5 min) were then initiated with the NADPH-generating system described previously and subjected to the same procedure.

Series [7] deals with T1, human P450 17A1. The series is described as follows: KinTek Explorer modeling of kinetics of inhibition of progesterone 17α-hydroxylation. The format is biochemical. The note with it: fit of Figure 10E data; E 2 μM, S 5 μM progesterone, I 1 μM; read-out: Kd as a competitive inhibitor (value giving adequate model fits).
Description: The results of the progesterone 17α-hydroxylation abiraterone inhibition experiment in Figure 10E were analyzed further using KinTek Explorer software (KinTek; Fig. 13).
The lines were fit to the model shown, with the indicated rate and dissociation constants. The enzyme concentration (E) was 2 μM, substrate concentration (S) was 5 μM, and inhibitor concentration (I, abiraterone) was 1 μM. Fitting was done with KinTek Explorer.
In series [8] the target is T1, human P450 17A1.
The test system of the next series is P450 17A1. The settings on record: cited from earlier work.
Series [9] concerns the target T1, human P450 17A1. The note with it: 250 nM P450 17A1 and 250 nM inhibitor, 23 °C.
Where [10] appears, read: IC50 (95% CI limits), 17α-OH pregnenolone lyase, steady-state, 0.02 μM P450 17A1, 1.5 μM 17α-OH pregnenolone, 37 °C.
The mark [11] stands for this setting: range of other studies, ref Other studies (2) Petrunak et al. 2017.

Where two headings read alike, the source gives them in different places. Where only a bound is given, the exact number is not on record here.

On to `CC(C)[C@@](O)(c1ccc2cc(OC(F)F)c(OC(F)F)cc2c1)c1cn[nH]n1` [(R)-Seviteronel], for which the IC50 in the series with human P450 17A1 [1] (ref (2) Petrunak et al. 2017) is 11300 nM. Further, in the series with human P450 17A1 [2] (ref (2) Petrunak et al. 2017), the “Ratio (17-hydroxylation/lyase) of IC50” value is given as 2.3 and the IC50 was 5000 nM.
Turning to `C[C@]12CC[C@H](O)CC1=CC[C@@H]1[C@@H]2CC[C@]2(C)C(c3cccnc3)=CC[C@@H]12` [Abiraterone, 17-(3-pyridyl)androsta-5,16-dien-3β-ol], the half-inhibitory concentration (IC50) against human P450 17A1 [3] is 3.2 nM; at human P450 17A1 [4] (setting [10]), 4.2 nM; in the series on human P450 17A1 [1] (ref (2) Petrunak et al. 2017), 76 nM; in the series with human P450 17A1 [2] (setting [11]), 2.9 to 800 nM; with human P450 17A1 [2] (ref (2) Petrunak et al. 2017) it was 36 nM. In addition, the inhibitory constant (Ki) on human P450 17A1 [3] was 1.3 nM; on human P450 17A1 [4], 3.4 nM. The figures for the “Ratio (17-hydroxylation/lyase) of IC50” value at human P450 17A1 [4], in the series on human P450 17A1 [2] (setting [11]) and in the series with human P450 17A1 [2] (ref (2) Petrunak et al. 2017) were 0.76, 0.1-1.4 and 2.1, respectively. The “Time within which inhibition occurred” value on human P450 17A1 [5] (Figs. 10, 11 and 13) is listed as “less than 1 s”. Moreover, the “Earliest time points at which inhibition was noted” value on human P450 17A1 [5] (progesterone 17α-hydroxylation, 1 μM abiraterone, 2 μM P450) is given as at most 100 ms. For the same compound, the “Inhibition of 17α-OH pregnenolone lyase versus preincubation time” value at human P450 17A1 [6] (100 nM b5, 20 μM 17α-OH pregnenolone, 23 °C) is “almost completely inhibited after 15 s”. For the same compound, on human P450 17A1 [6] (100 nM b5, 20 μM progesterone, 37 °C), the “Inhibition of progesterone 17α-hydroxylation versus preincubation time” value is given as “almost completely inhibited after 15 s”. Further, the dissociation constant Kd on human P450 17A1 [7] came out at 1 nM. Besides, the “Further spectral changes after formation of final complex” value at human P450 17A1 [8] (2 μM P450 17A1 and 2 μM abiraterone, spectra 1 to 57 min after mixing) is listed as “no further spectral changes were observed over a period of 1 h”. Moreover, the koff in the series on P450 17A1 was 0.0093 min⁻¹. In the series on P450 17A1, the “t1/2 (from koff)” value is 5 h.
In the case of `Clc1ccccc1C(c1ccccc1)(c1ccccc1)n1ccnc1` [Clotrimazole], the IC50 is 60 nM on human P450 17A1 [3], 99 nM against human P450 17A1 [4] (setting [10]), 180 nM in the series on human P450 17A1 [1] (ref (5) Munkboel et al. 2019) and 56 nM in the series with human P450 17A1 [2] (ref (5) Munkboel et al. 2019). Moreover, the results for the Ki on human P450 17A1 [3] and at human P450 17A1 [4] were 23 nM and 81 nM, respectively. In addition, the results for the “Ratio (17-hydroxylation/lyase) of IC50” value on human P450 17A1 [4] and in the series on human P450 17A1 [2] (ref (5) Munkboel et al. 2019) were 0.61 and 3.3, respectively. Moreover, the “Time required for completion of spectral changes on binding” value on human P450 17A1 [8] (2 μM P450 17A1 mixed with inhibitor, 23 °C) is on record as around 30 s. The “Lag in recovery of 17α-OH pregnenolone lyase from 1:1 inhibitor complex” value at human P450 17A1 [9] (20 μM 17α-OH pregnenolone) was “Any suggestion of lags is no greater than in the uninhibited reactions”. At human P450 17A1 [9] (20 μM progesterone), the “Lag in recovery of progesterone 17α-hydroxylation from 1:1 inhibitor complex” value is listed as “Any suggestion of lags is no greater than in the uninhibited reactions”.
With `C[C@]12CC[C@H](O)CC1=CC[C@@H]1[C@@H]2CC[C@]2(C)C(n3cnc4ccccc43)=CC[C@@H]12` [Galaterone], the concentration for half-maximal inhibition (IC50) in the series on human P450 17A1 [1] (ref (2) Petrunak et al. 2017) is 130 nM. Moreover, in the series on human P450 17A1 [2] (ref (2) Petrunak et al. 2017), the “Ratio (17-hydroxylation/lyase) of IC50” value is listed as 1.3 and the 50% inhibitory concentration (IC50) is 100 nM.
In the case of `CC(C)[C@](O)(c1ccc2cc(OC(F)F)c(OC(F)F)cc2c1)c1c[nH]nn1` [Seviteronel, (S)-Seviteronel], the IC50 was 3500 nM at human P450 17A1 [3]; 3430 nM against human P450 17A1 [4] (setting [10]); 3400 nM at human P450 17A1 [4] (This work (Fig. 3, Table 1), read-out: IC50, 17α-OH pregnenolone to DHEA (lyase)); 1170 nM with human P450 17A1 [1] (ref (2) Petrunak et al. 2017); 690 nM with human P450 17A1 [1] (ref (4) Rafferty et al. 2014); 430 nM in the series on human P450 17A1 [2] (ref (2) Petrunak et al. 2017). Moreover, the half-maximal inhibitory concentration (IC50) with human P450 17A1 [2] (ref (4) Rafferty et al. 2014) is 69 nM. Moreover, the inhibition constant (Ki) at human P450 17A1 [3] is 1370 nM; at human P450 17A1 [4], 2810 nM. Besides, the “Ratio (17-hydroxylation/lyase) of IC50” value at human P450 17A1 [4] is listed as 1.0; with human P450 17A1 [2] (ref (2) Petrunak et al. 2017), 2.7; in the series with human P450 17A1 [2] (ref (4) Rafferty et al. 2014) it was 10.
With `CC(C)(C)NC(=O)[C@@H]1CN(Cc2cccnc2)CCN1C[C@@H](O)C[C@@H](Cc1ccccc1)C(=O)N[C@H]1c2ccccc2C[C@H]1O` [indinavir], the “Spectral interaction with P450 17A1” value at human P450 17A1 [8] is listed as “did not show strong enough spectral interaction”.
Turning to `CCC(C)n1ncn(-c2ccc(N3CCN(c4ccc(OCC5COC(Cn6cncn6)(c6ccc(Cl)cc6Cl)O5)cc4)CC3)cc2)c1=O` (stereo not shown) [itraconazole], the “Spectral interaction with P450 17A1” value on human P450 17A1 [8] is listed as “did not show strong enough spectral interaction”.
